Measured values reported in US20080207614A1, “QUINAZOLINE DERIVATIVES FOR THE TREATMENT AND PREVENTION OF DIABETES AND OBESITY” (SK CHEMICALS CO., LTD., priority 2004, published 2008).

Experiments:
[1] = test system: C2C12 muscle cells; assay: Analysis of glucose absorption (2-deoxyglucose) in differentiated C2C12 muscle cells; type: cell-based; details: test materials 10 μM, times relative to control group
How it was run: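 Differentiated C2C12 myotubes (6 days in 1% serum) held 3 h in KRB with 5 mM glucose, then given test material at 10 μM. After 30 min, 0.2 μCi 2-deoxyglucose added for 20 min; uptake measured by radioactive counting of NaOH lysates.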

[2] = test system: AMPK; assay: Measurement of AMPK activity by Western blot in C2C12 cells; type: cell-based; design: key to AMPK activity (degree of phosphorylation of serine-79 and threonine-172): fold increase in threonine-172 phosphorylation; AMPK activity (degree of phosphorylation of serine-79): unit not given here; details: 10 μM for 50 minutes; for AMPK activity (degree of phosphorylation of serine-79 and threonine-172): no superscript: Western blot of serine-79 and threonine-172 phosphorylation; for AMPK activity (class: degree of phosphorylation of threonine-172): strong/mild/weak; for AMPK activity (degree of phosphorylation of serine-79): footnote a: Western blot of serine-79 phosphorylation
Method: C2C12 cells were cultured and differentiated in the same manner as in Experimental Example 1. Treatment with the test materials was also performed in the same manner as in Experimental Example 1 (10 μM for 50 minutes). The culture medium was removed and the cells were washed for 2 times with PBS and protein extracts were obtained using a lysis buffer (50 mM tris-HCl, pH 7.4, 1% NP-40, 0.25% sodium deoxycholate, 150 mM NaCl, 1 mM EDTA, 1 mM PMSF, 1 mM sodium o-vanadate, 1 mM NaF, 1 μg/mL apronitin, 1 μg/mL leu-peptin, 1 μg/mL pepstatin). The AMPK activity was determined from Western blot analysis of the degree of phosphorylation of serine-79 […] acetyl CoA carboxylase and the degree of phosphorylation of threonine-172. The amount of ERK (extracellular signal regulated protein kinase) was confirmed by Western blot in order to quantify the proteins.
The result of Western blot analysis is given in Table 3 below, wherein “strong” means that the degree of phosphorylation of threonine-172 increased by 3 times or more, “mild” means that the degree of phosphorylation of threonine-172 increased by 1 to 3 times and “weak” means that the degree of phosphorylation of threonine-172 increased by less than 1 time.

| SMILES | Glucose absorption [1] | AMPK activity (degree of phosphorylation of serine-79 and threonine-172) [2] | AMPK activity (class: degree of phosphorylation of threonine-172) [2] | AMPK activity (degree of phosphorylation of serine-79) [2] |
| --- | --- | --- | --- | --- |
| COc1ccccc1CNc1nc(N2CCCCC2)nc2ccccc12 [Compound 276, (2-Methoxybenzyl)-(2-piperidino-1-ylquinazolino-4-yl)-amine] | 0.8 | 1.9 |  |  |
| CC(C)c1nc(NCCc2ccccc2)c2ccccc2n1 [Compound 179, (2-Isopropylquinazolino-4-yl)-phenethylamine] | 2.9 | 3.8 | strong (“strong” means that the degree of phosphorylation of threonine-172 increased by 3 times or more) |  |
| COc1ccc(CNc2nc(C3CCCCC3)nc3ccccc23)cc1 [Compound 201, (2-Cyclohexylquinazolino-4-yl)-(4-methoxybenzyl)-amine] | 1.7 | 2.8 | strong (“strong” means that the degree of phosphorylation of threonine-172 increased by 3 times or more) |  |
| Clc1cccc(CNc2nc(-c3ccccc3)nc3ccccc23)c1 [Compound 145, (3-Chlorobenzyl)-(2-phenylquinazolino-4-yl)-amine] | 2.2 | 2.7 | strong (“strong” means that the degree of phosphorylation of threonine-172 increased by 3 times or more) |  |
| COc1ccc(CNc2nc(N3CCCCC3)nc3ccccc23)cc1OC [Compound 300, (3,4-Dimethoxybenzyl)-(2-piperidino-1-ylquinazolino-4-yl)-amine] | 0.9 | 1.0 |  |  |
| CCSc1nc(NCCc2cccc(F)c2)c2ccccc2n1 [Compound 10, (2-Ethylsulfanylquinazolino-4-yl)-[2-(3-fluorophenyl)-ethyl]-amine] | 1.5 |  |  | 5.3^a |
| COc1cccc(CNc2nc(C(OC)c3ccccc3)nc3ccccc23)c1 (stereo not drawn) [Compound 361, (3-Methoxybenzyl)-[2-(methoxyphenylmethyl)-quinazolino-4-yl]-amine] | 1.3 | 2.1 |  |  |
| CC(CO)Nc1nc(-c2ccccc2)nc2ccccc12 (stereo not drawn) [Compound 112, 2-(2-Phenylquinazolino-4-ylamino)-propane-1-ol] | 1.9 | 1.7 | strong (“strong” means that the degree of phosphorylation of threonine-172 increased by 3 times or more) |  |
| CCSc1nc(NCc2cccc(C(F)(F)F)c2)c2ccccc2n1 [Compound 26, (2-Ethylsulfanylquinazolino-4-yl)-(3-trifluoromethylbenzyl)-amine] | 1.7 |  | mild (“mild” means that the degree of phosphorylation of threonine-172 increased by 1 to 3 times) |  |
| CC(C)c1nc(NCc2cccc3ccccc23)c2ccccc2n1 [Compound 181, (2-Isopropylquinazolino-4-yl)-naphthaleno-1-ylmethylamine] | 3.1 | 3.1 | strong (“strong” means that the degree of phosphorylation of threonine-172 increased by 3 times or more) |  |
| CCSc1nc(NCc2cccc(OC)c2)c2ccccc2n1 [Compound 24, (2-Ethylsulfanylquinazolino-4-yl)-(3-methoxybenzyl)-amine] | 2.8 |  | strong (“strong” means that the degree of phosphorylation of threonine-172 increased by 3 times or more) |  |
| CCSc1nc(NCc2cccc(F)c2)c2ccccc2n1 [Compound 9, (2-Ethylsulfanylquinazolino-4-yl)-(3-fluorobenzyl)-amine] | 2.0 |  |  | 5.5^a |
| c1ccc(-c2nc(NC3CC3)c3ccccc3n2)cc1 [Compound 110, Cyclopropyl-(2-phenylquinazolino-4-yl)-amine] | 2.0 | 1.6 | strong (“strong” means that the degree of phosphorylation of threonine-172 increased by 3 times or more) |  |
| COc1ccc(CNc2nc(N3CCOCC3)nc3ccccc23)c(OC)c1 [Compound 293, (2,4-Dimethoxybenzyl)-(2-morpholino-4-ylquinazolino-4-yl)-amine] | 0.6 | 0.1 |  |  |
| COc1cccc(CNc2nc(C)nc3ccccc23)c1 [Compound 164, (3-Methoxybenzyl)-(2-methylquinazolino-4-yl)-amine] | 3.4 | 1.6 | mild (“mild” means that the degree of phosphorylation of threonine-172 increased by 1 to 3 times) |  |
| CC(C)c1nc(NCCc2cccc(F)c2)c2ccccc2n1 [Compound 184, [2-(3-Fluorophenyl)-ethyl]-(2-isopropylquinazolino-4-yl)-amine] | 3.2 | 1.9 | strong (“strong” means that the degree of phosphorylation of threonine-172 increased by 3 times or more) |  |
| COc1ccc(CNc2nc(-c3ccccc3)nc3ccccc23)cc1OC [Compound 118, (3,4-Dimethoxybenzyl)-(2-phenylquinazolino-4-yl)-amine] | 2.1 | 2.0 | strong (“strong” means that the degree of phosphorylation of threonine-172 increased by 3 times or more) |  |
| Clc1cccc(CCNc2nc(-c3ccccc3)nc3ccccc23)c1 [Compound 126, [2-(3-Chlorophenyl)-ethyl]-(2-phenylquinazolino-4-yl)-amine] | 2.1 | 2.0 | strong (“strong” means that the degree of phosphorylation of threonine-172 increased by 3 times or more) |  |
| CCSc1nc(NC(C)CC)c2ccccc2n1 (stereo not drawn) [Compound 20, sec-Butyl-(2-ethylsulfanylquinazolino-4-yl)-amine] | 1.9 |  | weak (“weak” means that the degree of phosphorylation of threonine-172 increased by less than 1 time) |  |
| COc1cc(CNc2nc(C(C)C)nc3ccccc23)cc(OC)c1OC [Compound 325, (2-Isopropylquinazolino-4-yl)-(3,4,5-trimethoxybenzyl)-amine] | 1.2 | 2.2 |  |  |
| c1ccc2c(NCc3ccc4c(c3)OCO4)nc(N3CCOCC3)nc2c1 [Compound 309, Benzo[1,3]dioxol-5-ylmethyl-(2-morpholino-4-ylquinazolino-4-yl)-amine] | 0.8 | 1.3 |  |  |
| COc1cc(CNc2nc(N3CCCCC3)nc3ccccc23)cc(OC)c1 [Compound 304, (3,5-Dimethoxybenzyl)-(2-piperidino-1-ylquinazolino-4-yl)-amine] | 0.8 | 1.4 |  |  |
| COc1cc(CNc2nc(N3CCCC3)nc3ccccc23)cc(OC)c1OC [Compound 311, (2-Pyrrolidino-1-ylquinazolino-4-yl)-(3,4,5-trimethoxybenzyl)-amine] |  | 0.2 |  |  |
| COc1ccc(OC)c(CNc2nc(-c3cccs3)nc3ccccc23)c1 [Compound 358, (2,5-Dimethoxybenzyl)-(2-thiopenyl-2-ylquinazolino-4-yl)-amine] |  | 0.8 |  |  |
| COc1ccc(OC)c(CNc2nc(N3CCOCC3)nc3ccccc23)c1 [Compound 297, (2,5-Dimethoxybenzyl)-(2-morpholino-4-ylquinazolino-4-yl)-amine] |  | 0.8 |  |  |
| CCCc1nc(NCc2cc(OC)ccc2OC)c2ccccc2n1 [Compound 402, (2,5-Dimethoxybenzyl)-(2-propylquinazolino-4-yl)-amine] |  | 0.5 |  |  |
| CCOc1nc(NCc2ccc3c(c2)OCO3)c2ccccc2n1 [Compound 320, Benzo[1,3]dioxol-5-ylmethyl-(2-ethoxyquinazolino-4-yl)-amine] |  | 0.9 |  |  |
| COc1ccc(OC)c(CNc2nc(-c3ccco3)nc3ccccc23)c1 [Compound 347, (2,5-Dimethoxybenzyl)-(2-furano-2-ylquinazolino-4-yl)-amine] |  | 1.2 |  |  |
